These results are taken from patent US10647747B2, “Cyclosporin derivatives and uses thereof” (S&T Global Inc., priority 2010, dated 2020).

As a reminder, the pEC50 is the negative decadic logarithm of the EC50, by convention in mol/L.

pEC50: −log10 of the molar value. *1 amine or outer side, *2 acyl side, *3 side chain or, on linkers, in order; H or OH if unused. Where a SMILES comes first, the peptide text is derived from it. [ ]: non-standard residue; d: D form. The star is where a group is joined. X12 = COc1ccc(COC(C)(C)CC(C(=O)[*:2])N(C)[*:1])cc1; MeBmt = C/C=C/C[C@@H](C)[C@@H](O)[C@H](NC)C(=O)O; X14 = CCOCOC(C)(C)C[C@@H](C(=O)[*:2])N(C)[*:1]; X15 = CSCOC(C)(C)C[C@@H](C(=O)[*:2])N(C)[*:1]; X3 = CC=CCC(C)C(O)C(C(=O)[*:2])N(C)[*:1]; X5 = CSCOC(C)(C)CC(C(=O)[*:2])N(C)[*:1]; X7 = CN(C(SCCCN1CCOCC1)C(=O)[*:2])[*:1]; X4 = CCN(CC)CCSC(C(=O)[*:2])N(C)[*:1]; NMeL = CN[CH](CC(C)C)C(=O)O; NMeV = CN[CH](C(=O)O)C(C)C; dNMeC = CN[C@H](CS)C(=O)O; Et2NCH2CH2 = CCN(CC)CC*; Abu = CC[CH](N)C(=O)O

The first test relates to HCV replicon in cell line ET (luc-ubi-neo/ET), Huh7 human hepatoma. The test can be described thus: HCV subgenomic replicon assay, luciferase end point. Type of test: cell-based. Conditions: Hepatitis C virus, Huh-7, Table 14, HCV replicon luciferase; read-out: Antiviral activity EC50. (Replicon systems follow genome replication, usually without infectious particles.)
In the case of `C/C=C/C[C@@H](C)[C@@H](O)[C@H]1C(=O)N[C@@H](CC)C(=O)N(C)[C@H](CSCCN(CC)CC)C(=O)N(C)[C@@H](CC(C)(C)OCOCC)C(=O)N[C@@H](C(C)C)C(=O)N(C)[C@@H](CC(C)C)C(=O)N[C@@H](C)C(=O)N[C@H](C)C(=O)N(C)[C@@H](CC(C)C)C(=O)N(C)[C@@H](CC(C)C)C(=O)N(C)[C@@H](C(C)C)C(=O)N1C` (cyclo(A[dA][NMeL][NMeL][NMeV][MeBmt][Abu][dNMeC](Et2NCH2CH2)[X14]V[NMeL])), the negative logarithm of the EC50 (pEC50) was 7.70.
The same measure, in the same setting: the figure for `C/C=C/C[C@@H](C)[C@@H](O)[C@H]1C(=O)N[C@@H](CC)C(=O)N(C)[C@H](CSCCN(CC)CC)C(=O)N(C)[C@@H](CC(C)(C)OCSC)C(=O)N[C@@H](C(C)C)C(=O)N(C)[C@@H](CC(C)C)C(=O)N[C@@H](C)C(=O)N[C@H](C)C(=O)N(C)[C@@H](CC(C)C)C(=O)N(C)[C@@H](CC(C)C)C(=O)N(C)[C@@H](C(C)C)C(=O)N1C` (cyclo(A[dA][NMeL][NMeL][NMeV][MeBmt][Abu][dNMeC](Et2NCH2CH2)[X15]V[NMeL])) is 7.70; for `C/C=C/C[C@@H](C)[C@@H](O)[C@H]1C(=O)N[C@@H](CC)C(=O)N(C)[C@H](CSCCN(CC)CC)C(=O)N(C)[C@@H](CC(C)(C)O)C(=O)N[C@@H](C(C)C)C(=O)N(C)[C@@H](CC(C)C)C(=O)N[C@@H](C)C(=O)N[C@H](C)C(=O)N(C)[C@@H](CC(C)C)C(=O)N(C)[C@@H](CC(C)C)C(=O)N(C)[C@@H](C(C)C)C(=O)N1C` (single isomer, unassigned) it is 7.52.

The test is the same for the next values; noted with them: Table 12, HCV replicon luciferase; read-out: Antiviral activity EC50.
`CC=CCC(C)C(O)C1C(=O)NC(CC)C(=O)N(C)C(SCCN(CC)CC)C(=O)N(C)C(CC(C)(C)OCSC)C(=O)NC(C(C)C)C(=O)N(C)C(CC(C)C)C(=O)NC(C)C(=O)NC(C)C(=O)N(C)C(CC(C)C)C(=O)N(C)C(CC(C)C)C(=O)N(C)C(C(C)C)C(=O)N1C` (centres unmarked) (cyclo([X3][Abu][X4][X5]V[NMeL]AA[NMeL][NMeL][NMeV]); configuration not given here) [listing 1 of 2 here]: the pEC50 is 6.96.

The test is the same for the next values; noted with them: Table 13, HCV replicon luciferase; read-out: Antiviral activity EC50.
With `CC=CCC(C)C(O)C1C(=O)NC(CC)C(=O)N(C)C(SCCN(CC)CC)C(=O)N(C)C(CC(C)(C)OCSC)C(=O)NC(C(C)C)C(=O)N(C)C(CC(C)C)C(=O)NC(C)C(=O)NC(C)C(=O)N(C)C(CC(C)C)C(=O)N(C)C(CC(C)C)C(=O)N(C)C(C(C)C)C(=O)N1C` (centres unmarked) (cyclo([X3][Abu][X4][X5]V[NMeL]AA[NMeL][NMeL][NMeV]); configuration not given here) [listing 2 of 2 here], the pEC50 is 6.89.
In the case of `CC=CCC(C)C(O)C1C(=O)NC(CC)C(=O)N(C)C(SCCCN2CCOCC2)C(=O)N(C)C(CC(C)(C)OCSC)C(=O)NC(C(C)C)C(=O)N(C)C(CC(C)C)C(=O)NC(C)C(=O)NC(C)C(=O)N(C)C(CC(C)C)C(=O)N(C)C(CC(C)C)C(=O)N(C)C(C(C)C)C(=O)N1C` (centres unmarked) (cyclo([X3][Abu][X7][X5]V[NMeL]AA[NMeL][NMeL][NMeV]); configuration not given here), the negative-log EC50 (pEC50) is 6.80.
On the same count and under the same terms, in the case of `CC=CCC(C)C(O)C1C(=O)NC(CC)C(=O)N(C)C(SCCCN2CCOCC2)C(=O)N(C)C(CC(C)(C)OCc2ccc(OC)cc2)C(=O)NC(C(C)C)C(=O)N(C)C(CC(C)C)C(=O)NC(C)C(=O)NC(C)C(=O)N(C)C(CC(C)C)C(=O)N(C)C(CC(C)C)C(=O)N(C)C(C(C)C)C(=O)N1C` (centres unmarked) (cyclo([X3][Abu][X7][X12]V[NMeL]AA[NMeL][NMeL][NMeV]); configuration not given here) it was 6.55; in that of `C/C=C/C[C@@H](C)[C@@H](O)[C@H]1C(=O)N[C@@H](CC)C(=O)N(C)[C@@H](CSCCN(CC)CC)C(=O)N(C)[C@@H](CC(C)(C)O)C(=O)N[C@@H](C(C)C)C(=O)N(C)[C@@H](CC(C)C)C(=O)N[C@@H](C)C(=O)N[C@H](C)C(=O)N(C)[C@@H](CC(C)C)C(=O)N(C)[C@@H](CC(C)C)C(=O)N(C)[C@@H](C(C)C)C(=O)N1C` (single isomer, unassigned; isomer a) [listing 1 of 2 here], 5.67.

Staying with this test, now noted: Table 14, HCV replicon luciferase; read-out: Antiviral activity EC50.
As for `C/C=C/C[C@@H](C)[C@@H](O)[C@H]1C(=O)N[C@@H](CC)C(=O)N(C)[C@@H](CSCCN(CC)CC)C(=O)N(C)[C@@H](CC(C)(C)O)C(=O)N[C@@H](C(C)C)C(=O)N(C)[C@@H](CC(C)C)C(=O)N[C@@H](C)C(=O)N[C@H](C)C(=O)N(C)[C@@H](CC(C)C)C(=O)N(C)[C@@H](CC(C)C)C(=O)N(C)[C@@H](C(C)C)C(=O)N1C` (single isomer, unassigned; isomer a) [listing 2 of 2 here], the negative-log EC50 (pEC50) is 5.67.

The same test, now with this note: Table 16, HCV replicon luciferase; read-out: Antiviral activity EC50.
For the compound `C/C=C/C[C@@H](C)[C@@H](O)[C@H]1C(=O)N[C@@H](CC)C(=O)N(C)[C@H](CSCCCN2CCN(CC(C)C)CC2)C(=O)N(C)[C@@H](CC(C)(C)O)C(=O)N[C@@H](C(C)C)C(=O)N(C)[C@@H](CC(C)C)C(=O)N[C@@H](C)C(=O)N[C@H](C)C(=O)N(C)[C@@H](CC(C)C)C(=O)N(C)[C@@H](CC(C)C)C(=O)N(C)[C@@H](C(C)C)C(=O)N1C`, the pEC50 was 7.30.
Same read-out and setting: in the case of `CC=CCC(C)C(O)C1C(=O)NC(CC)C(=O)N(C)C(CSCCCN2CCN(C(C)C)CC2)C(=O)N(C)C(CC(C)(C)O)C(=O)NC(C(C)C)C(=O)N(C)C(CC(C)C)C(=O)NC(C)C(=O)NC(C)C(=O)N(C)C(CC(C)C)C(=O)N(C)C(CC(C)C)C(=O)N(C)C(C(C)C)C(=O)N1C` (centres unmarked) it was 7.30; in that of `CC=CCC(C)C(O)C1C(=O)NC(CC)C(=O)N(C)C(CSCCCN2CCN(CC(C)(C)C)CC2)C(=O)N(C)C(CC(C)(C)O)C(=O)NC(C(C)C)C(=O)N(C)C(CC(C)C)C(=O)NC(C)C(=O)NC(C)C(=O)N(C)C(CC(C)C)C(=O)N(C)C(CC(C)C)C(=O)N(C)C(C(C)C)C(=O)N1C` (centres unmarked), 7.22; in that of `CC=CCC(C)C(O)C1C(=O)NC(CC)C(=O)N(C)C(CSCCCN2CCN(CCC)CC2)C(=O)N(C)C(CC(C)(C)O)C(=O)NC(C(C)C)C(=O)N(C)C(CC(C)C)C(=O)NC(C)C(=O)NC(C)C(=O)N(C)C(CC(C)C)C(=O)N(C)C(CC(C)C)C(=O)N(C)C(C(C)C)C(=O)N1C` (centres unmarked), 7.30.
Still for that read-out and setting: in the case of `CC=CCC(C)C(O)C1C(=O)NC(CC)C(=O)N(C)C(CSCCCCOCCN(CC)CC)C(=O)N(C)C(CC(C)(C)O)C(=O)NC(C(C)C)C(=O)N(C)C(CC(C)C)C(=O)NC(C)C(=O)NC(C)C(=O)N(C)C(CC(C)C)C(=O)N(C)C(CC(C)C)C(=O)N(C)C(C(C)C)C(=O)N1C` (centres unmarked) it was 7.30; in that of `CC=CCC(C)C(O)C1C(=O)NC(CC)C(=O)N(C)C(CSCCCCNCC(C)(C)C)C(=O)N(C)C(CC(C)(C)O)C(=O)NC(C(C)C)C(=O)N(C)C(CC(C)C)C(=O)NC(C)C(=O)NC(C)C(=O)N(C)C(CC(C)C)C(=O)N(C)C(CC(C)C)C(=O)N(C)C(C(C)C)C(=O)N1C` (centres unmarked), 7.40; in that of `CC=CCC(C)C(O)C1C(=O)NC(CC)C(=O)N(C)C(CSCCCCN(CC)CC)C(=O)N(C)C(CC(C)(C)O)C(=O)NC(C(C)C)C(=O)N(C)C(CC(C)C)C(=O)NC(C)C(=O)NC(C)C(=O)N(C)C(CC(C)C)C(=O)N(C)C(CC(C)C)C(=O)N(C)C(C(C)C)C(=O)N1C` (centres unmarked), 7.15.
With `CC=CCC(C)C(O)C1C(=O)NC(CC)C(=O)N(C)C(CSCCCCN(CC(C)C)CC(C)C)C(=O)N(C)C(CC(C)(C)O)C(=O)NC(C(C)C)C(=O)N(C)C(CC(C)C)C(=O)NC(C)C(=O)NC(C)C(=O)N(C)C(CC(C)C)C(=O)N(C)C(CC(C)C)C(=O)N(C)C(C(C)C)C(=O)N1C` (centres unmarked), the pEC50 is 7.40.
